Laboratory results published in patent US10160747B2, “Compounds and methods for kinase modulation, and indications therefor” (Plexxikon Inc., priority 2016, dated 2018).

molecular target: T1, c-KIT (Homo sapiens, UniProt P10721); experiment: c-KIT recombinant enzyme kinase assay (AlphaScreen); assay type: biochemical; settings: 100 ATP, 8 pt
T1 construct: purchased Millipore 14-559K
Method: In order to determine the effect of compounds on FLT3 catalytic activity, kinase assays using recombinant enzymes and AlphaScreen® technology have been established. The catalytic activity of c-kit activity was also measured to determine selectivity of the compounds. When the kinases are catalytically active, they phosphorylate a biotinylated peptide substrate on tyrosine residues. Using AlphaScreen® technology, the ability of the compounds to affect the catalytic activity of the kinases can be measured quantitatively. The peptide substrate is immobilized by the AlphaScreen® Streptavidin Donor beads and, upon phosphorylation by a tyrosine kinase, can bind to AlphaScreen® Anti-Phosphotyrosine (PY20) Acceptor beads. Upon excitation of these beads with laser light at 680 nm, singlet oxygen is produced. This singlet oxygen is rapidly quenched, unless the AlphaScreen® Anti-Phosphotyrosine (PY20) Acceptor beads are in close proximity, in which case a proximity signal can be measured at 580 nm. In the presence of catalytic activity, there is a very strong proximity signal. Selective kinase inhibitors affect a decrease in this proximity signal through a decrease in tyrosine phosphorylation of the peptide substrate.
The assay was performed as summarized below.
Poly (Glu4-Tyr) Peptide, biotin conjugate [Biotin-GG(EEEEY)10EE] (SEQ ID NO: 4)
Final concentration=30 nM
Adenosine Triphosphate (ATP)
Final concentration for IC50 determination=10 μM (FLT3-D835Y or FLT3-ITD) or 100 μM (c-KIT)
AlphaScreen® Phosphotyrosine (PY20) Assay Kit
Final concentration=10 μg/mL
Dilute compounds in DMSO to 20× final concentration.
Add 1 μL of compound to each well of 384 well reaction plate (Perkin Elmer #6005359).
Mix enzyme and Poly (Glu4-Tyr) Peptide substrate at 1.33× final concentration in assay buffer.
Mix ATP at 5× final concentration in assay buffer.
Add 15 μL enzyme/substrate mixture to the reaction plate.
Add 4 μL of ATP to the reaction plate.
Mix Streptavidin Donor beads at 6× final concentration in Stop/Detection buffer.
Add 5 μL Streptavidin Donor beads to the reaction plate. Centrifuge 1 minute, shake to mix, and incubate at room temperature for 20 minutes.
Mix Anti-Phosphotyrosine (PY20) Acceptor beads at 6× final concentration in Stop/Detection buffer.
Add 5 μL Anti-Phosphotyrosine (PY20) beads to the reaction plate.
Centrifuge 1 minute, shake to mix, and incubate at room temperature for 60 minutes.
Read plate on Wallac EnVision™ 2103 Multilabel Reader.

T1 sequence (P10721 26-976): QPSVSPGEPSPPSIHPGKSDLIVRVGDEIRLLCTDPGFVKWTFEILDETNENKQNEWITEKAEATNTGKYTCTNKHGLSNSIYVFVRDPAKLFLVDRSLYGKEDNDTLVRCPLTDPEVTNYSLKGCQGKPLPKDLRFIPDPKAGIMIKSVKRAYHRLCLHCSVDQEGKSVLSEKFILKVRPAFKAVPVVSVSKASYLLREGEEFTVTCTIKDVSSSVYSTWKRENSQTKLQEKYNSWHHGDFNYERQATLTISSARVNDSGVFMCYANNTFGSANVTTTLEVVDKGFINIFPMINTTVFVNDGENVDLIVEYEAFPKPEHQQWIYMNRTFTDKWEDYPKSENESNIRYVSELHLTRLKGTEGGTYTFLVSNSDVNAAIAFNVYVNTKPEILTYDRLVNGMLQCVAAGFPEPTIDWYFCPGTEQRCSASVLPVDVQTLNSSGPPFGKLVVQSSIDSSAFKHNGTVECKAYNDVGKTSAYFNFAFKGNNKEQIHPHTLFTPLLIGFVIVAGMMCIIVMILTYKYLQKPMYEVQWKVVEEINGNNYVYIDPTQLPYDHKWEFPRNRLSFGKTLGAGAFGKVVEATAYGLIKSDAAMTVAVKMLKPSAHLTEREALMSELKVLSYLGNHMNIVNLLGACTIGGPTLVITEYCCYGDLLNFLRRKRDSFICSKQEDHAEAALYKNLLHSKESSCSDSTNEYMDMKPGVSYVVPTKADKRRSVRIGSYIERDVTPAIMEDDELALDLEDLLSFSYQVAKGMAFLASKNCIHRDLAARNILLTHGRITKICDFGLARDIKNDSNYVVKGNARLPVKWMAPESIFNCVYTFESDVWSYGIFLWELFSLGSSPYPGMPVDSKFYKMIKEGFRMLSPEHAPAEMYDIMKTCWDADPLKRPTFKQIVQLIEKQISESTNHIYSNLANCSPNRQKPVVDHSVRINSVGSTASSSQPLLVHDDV

SMILES	IC50
N#Cc1cc(-c2cc3cc(-c4ccc(CC(=O)Nc5ccnc(C(F)(F)F)c5)nc4)cnc3[nH]2)ccn1 [Compound P-0182, 2-[5-[2-(2-cyano-4-pyridyl)-1H-pyrrolo[2,3-b]pyridin-5-yl]-2-pyridyl]-N-[2-(trifluoromethyl)-4-pyridyl]acetamide]	0.0001 to 10 µM
Cn1cnc(Nc2ncc(-c3ccc(CC(=O)Nc4cc(C(C)(F)F)ccn4)cc3)cn2)c1 [Compound P-0169, N-[4-(1,1-difluoroethyl)-2-pyridyl]-2-[4-[2-[(1-methylimidazol-4-yl)amino]pyrimidin-5-yl]phenyl]acetamide]	0.0001 to 10 µM
Cn1cc(Nc2ncc(-c3ccc(CC(=O)Nc4cnc(Cl)c(C(F)(F)F)c4)c(F)c3)cn2)cn1 [Compound P-0092, N-[6-chloro-5-(trifluoromethyl)-3-pyridyl]-2-[2-fluoro-4-[2-[(1-methylpyrazol-4-yl)amino]pyrimidin-5-yl]phenyl]acetamide]	0.0001 to 10 µM
Cn1cc(Nc2ncc(-c3ccc(CC(=O)Nc4cc(C(F)(F)F)ccn4)cc3)cn2)cn1 [Compound P-0139, 2-[4-[2-[(1-methylpyrazol-4-yl)amino]pyrimidin-5-yl]phenyl]-N-[4-(trifluoromethyl)-2-pyridyl]acetamide]	0.0001 to 10 µM
Cn1cc(Nc2ncc(-c3ccc(CC(=O)Nc4ccc(C(F)(F)F)nc4)c(F)c3)cn2)cn1 [Compound P-0110, 2-[2-fluoro-4-[2-[(1-methylpyrazol-4-yl)amino]pyrimidin-5-yl]phenyl]-N-[6-(trifluoromethyl)-3-pyridyl]acetamide]	0.0001 to 10 µM
Cn1cc(Nc2ncc(-c3ccc(CC(=O)Nc4ccnc(C(F)(F)F)n4)cc3)cn2)cn1 [Compound P-0137, 2-[4-[2-[(1-methylpyrazol-4-yl)amino]pyrimidin-5-yl]phenyl]-N-[2-(trifluoromethyl)pyrimidin-4-yl]acetamide]	0.0001 to 10 µM
Cn1cc(Nc2ncc(-c3ccc(CC(=O)Nc4ccnc(C(F)(F)F)c4)cc3)cn2)cn1 [Compound P-0134, 2-[4-[2-[(1-methylpyrazol-4-yl)amino]pyrimidin-5-yl]phenyl]-N-[2-(trifluoromethyl)-4-pyridyl]acetamide]	0.0001 to 10 µM
Cn1cc(Nc2ncc(-c3ccc(CC(=O)Nc4ccc(C(F)(F)F)cn4)c(F)c3)cn2)cn1 [Compound P-0106, 2-[2-fluoro-4-[2-[(1-methylpyrazol-4-yl)amino]pyrimidin-5-yl]phenyl]-N-[5-(trifluoromethyl)-2-pyridyl]acetamide]	0.0001 to 10 µM
COc1cncc(NC(=O)Cc2ccc(-c3cnc(Nc4cnn(C)c4)nc3)cc2)c1 [Compound P-0133, N-(5-methoxy-3-pyridyl)-2-[4-[2-[(1-methylpyrazol-4-yl)amino]pyrimidin-5-yl]phenyl]acetamide]	0.0001 to 10 µM
Cc1ncc(NC(=O)Cc2ccc(-c3cnc(Nc4cn(C)cn4)nc3)cc2)cc1C(F)(F)F [Compound P-0150, 2-[4-[2-[(1-methylimidazol-4-yl)amino]pyrimidin-5-yl]phenyl]-N-[6-methyl-5-(trifluoromethyl)-3-pyridyl]acetamide]	0.0001 to 10 µM
N#Cc1cc(-c2cc3cc(-c4ccc(CC(=O)Nc5cc(C(F)(F)F)ccn5)cc4F)cnc3[nH]2)ccn1 [Compound P-0194, 2-[4-[2-(2-cyano-4-pyridyl)-1H-pyrrolo[2,3-b]pyridin-5-yl]-3-fluoro-phenyl]-N-[4-(trifluoromethyl)-2-pyridyl]acetamide]	0.0001 to 10 µM
Cn1cc(Nc2ncc(-c3ccc(CC(=O)Nc4ccc(C(C)(C)C)nc4)cc3)cn2)cn1 [Compound P-0143, N-(6-tert-butyl-3-pyridyl)-2-[4-[2-[(1-methylpyrazol-4-yl)amino]pyrimidin-5-yl]phenyl]acetamide]	0.0001 to 10 µM
Cn1cc(Nc2ncc(-c3ccc(CC(=O)Nc4cncc(C(C)(F)F)c4)cc3)cn2)cn1 [Compound P-0144, N-[5-(1,1-difluoroethyl)-3-pyridyl]-2-[4-[2-[(1-methylpyrazol-4-yl)amino]pyrimidin-5-yl]phenyl]acetamide]	0.0001 to 10 µM
Cn1cnc(Nc2ncc(-c3ccc(CC(=O)Nc4cncc(C(C)(F)F)c4)c(F)c3)cn2)c1 [Compound P-0103, N-[5-(1,1-difluoroethyl)-3-pyridyl]-2-[2-fluoro-4-[2-[(1-methylimidazol-4-yl)amino]pyrimidin-5-yl]phenyl]acetamide]	0.0001 to 10 µM

The next lines start with the values.

IC50	SMILES
0.0001 to 10 µM	N#Cc1cc(-c2cc3cc(-c4ccc(CC(=O)Nc5cncc(C(F)(F)F)c5)cc4F)cnc3[nH]2)ccn1 [Compound P-0199, 2-[4-[2-(2-cyano-4-pyridyl)-1H-pyrrolo[2,3-b]pyridin-5-yl]-3-fluoro-phenyl]-N-[5-(trifluoromethyl)-3-pyridyl]acetamide]
0.0001 to 10 µM	COc1ncc(NC(=O)Cc2ccc(-c3cnc(Nc4cn(C)cn4)nc3)cc2)cc1C(F)(F)F [Compound P-0149, N-[6-methoxy-5-(trifluoromethyl)-3-pyridyl]-2-[4-[2-[(1-methylimidazol-4-yl)amino]pyrimidin-5-yl]phenyl]acetamide]
0.0001 to 10 µM	Cn1cc(Nc2ncc(-c3ccc(CC(=O)Nc4cnc(F)c(C(C)(F)F)c4)c(F)c3)cn2)cn1 [Compound P-0105, N-[5-(1,1-difluoroethyl)-6-fluoro-3-pyridyl]-2-[2-fluoro-4-[2-[(1-methylpyrazol-4-yl)amino]pyrimidin-5-yl]phenyl]acetamide]
0.0001 to 10 µM	CC(C)c1cc(NC(=O)Cc2ccc(-c3cnc(Nc4cnn(C)c4)nc3)cc2F)ccn1 [Compound P-0094, 2-[2-fluoro-4-[2-[(1-methylpyrazol-4-yl)amino]pyrimidin-5-yl]phenyl]-N-(2-isopropyl-4-pyridyl)acetamide]
0.0001 to 10 µM	Cn1cc(Nc2ncc(-c3ccc(CC(=O)Nc4cc(C(F)(F)F)ncn4)cc3)cn2)cn1 [Compound P-0135, 2-[4-[2-[(1-methylpyrazol-4-yl)amino]pyrimidin-5-yl]phenyl]-N-[6-(trifluoromethyl)pyrimidin-4-yl]acetamide]
0.0001 to 10 µM	CCn1cc(Nc2ncc(-c3ccc(CC(=O)Nc4cncc(C(F)(F)F)c4)cc3)cn2)cn1 [Compound P-0166, 2-[4-[2-[(1-ethylpyrazol-4-yl)amino]pyrimidin-5-yl]phenyl]-N-[5-(trifluoromethyl)-3-pyridyl]acetamide]
0.0001 to 10 µM	Cn1cc(Nc2ncc(-c3ccc(CC(=O)Nc4ccnc(C5CC5)c4)cc3)cn2)cn1 [Compound P-0097, N-(2-cyclopropyl-4-pyridyl)-2-[4-[2-[(1-methylpyrazol-4-yl)amino]pyrimidin-5-yl]phenyl]acetamide]
0.0001 to 10 µM	COc1nn(C[C@H](C)O)cc1Nc1ncc(-c2ccc(CC(=O)Nc3cnc(C)c(C(F)(F)F)c3)cc2)cn1 [Compound P-0180, 2-[4-[2-[[1-[(2S)-2-hydroxypropyl]-3-methoxy-pyrazol-4-yl]amino]pyrimidin-5-yl]phenyl]-N-[6-methyl-5-(trifluoromethyl)-3-pyridyl]acetamide]
0.0001 to 10 µM	Cn1cc(Nc2ncc(-c3ccc(CC(=O)Nc4cnc(Cl)c(C(F)(F)F)c4)cc3)cn2)cn1 [Compound P-0145, N-[6-chloro-5-(trifluoromethyl)-3-pyridyl]-2-[4-[2-[(1-methylpyrazol-4-yl)amino]pyrimidin-5-yl]phenyl]acetamide]
0.0001 to 10 µM	COCCn1cc(Nc2ncc(-c3ccc(CC(=O)Nc4cnc(C)c(C(F)(F)F)c4)cc3)cn2)cn1 [Compound P-0179, 2-[4-[2-[[1-(2-methoxyethyl)pyrazol-4-yl]amino]pyrimidin-5-yl]phenyl]-N-[6-methyl-5-(trifluoromethyl)-3-pyridyl]acetamide]
0.0001 to 10 µM	O=C(Cc1ccc(-c2cnc3[nH]c(-c4ccnc(N5CCOCC5)c4)cc3c2)cn1)Nc1ccnc(C(F)(F)F)c1 [Compound P-0181, 2-[5-[2-(2-morpholino-4-pyridyl)-1H-pyrrolo[2,3-b]pyridin-5-yl]-2-pyridyl]-N-[2-(trifluoromethyl)-4-pyridyl]acetamide]
0.0001 to 10 µM	Cn1cc(Nc2ncc(-c3ccc(CC(=O)Nc4ccc(C(C)(C)C#N)nc4)cc3)cn2)cn1 [Compound P-0146, N-[6-(1-cyano-1-methyl-ethyl)-3-pyridyl]-2-[4-[2-[(1-methylpyrazol-4-yl)amino]pyrimidin-5-yl]phenyl]acetamide]
0.0001 to 10 µM	Cn1cc(Nc2ncc(-c3ccc(CC(=O)Nc4ccc(C(C)(C)C#N)nc4)c(F)c3)cn2)cn1 [Compound P-0108, N-[6-(1-cyano-1-methyl-ethyl)-3-pyridyl]-2-[2-fluoro-4-[2-[(1-methylpyrazol-4-yl)amino]pyrimidin-5-yl]phenyl]acetamide]
